Source: patent US10077288B2, “Hydroxystatin derivatives for the treatment of arthrosis” (Merck Patent GmbH, priority 2012, dated 2018)

How the values were obtained:
[1] = test system: bovine explants (cartilage degradation, liberation of GAG); test: Cartilage explant assay: pH-induced cartilage degradation, GAG release; assay type: cell-based; conditions: Bos taurus, 72 h, pH 5.5, 3 days
Source text: EXAMPLE 5: CARTILAGE EXPLANT ASSAY
In order to investigate the effect of potential cathepsin D inhibitors on cartilage degradation, a pH-induced model based on bovine explants is used. The pH of the medium in which the explants are cultivated is matched here to the pathophysiological pH of an arthrotic knee. This pH is pH 5.5. In this ex vivo model, potential cathepsin D inhibitors are subsequently investigated for their action with respect to stopping of the cartilage degradation process. If the cartilage is destroyed, glycosaminoglycans (GAGs) are released into the cell culture supernatant. The amount of GAGs liberated can be determined quantitatively with the aid of DMMB (dimethylmethylene blue hydrochloride). If sulfated GAGs are detected using dimethylmethylene blue hydrochloride, the decrease in the absorption at 633 nm is utilised. […] In order to determine the concentration, a calibration line is also recorded using chondroitin sulfate.
1.) Procedure: pH-Induced Cartilage Degradation of Bovine Explants
The bovine explants are firstly prepared. The induction of the cartilage degradation is carried out in 96-multiwell plates. One explant is cultivated per well. In each case, 200 μl of DMEM (incubation medium pH 5.5) without FBS+30 μg/ml of ascorbic acid are added. Thus negative control, explants (n=4) are incubated at pH 7.4 (without FBS). This control is not included in the calculation of the data, but instead ensures that the pH change has the desired effect on the liberation of GAG. At this point, the substances to be tested are added. No pre-incubation of the explants is carried out. The explants are cultivated with the corresponding substances for 3 days in the incubator at 37° C. and 7.5% CO2.
In order to investigate the effect of cathepsin D inhibitors on the liberation of GAG (glycosaminoglycan), the substances are employed in the desired concentration and cultivated for 3 days. The compounds to be tested are tested in a first experiment in a concentration of 1 μM and 1% of DMSO. Substances which have an effect of >50% on the liberation of GAG (this corresponds to <50% of the control in the Assay Explorer) are tested in the next experiment at 100 nM and 1% of DMSO. Substances which have an effect of >50% on the liberation of GAG under these conditions (this corresponds to <50% of the control in the Assay Explorer) are tested in a concentration/effect relationship. The compounds here are investigated in the following concentrations: 30 μM, 10 μM, 3 μM, 1 μM, 0.3 μM, 0.1 μM, 0.03 μM, 0.01 μM.
The positive control used is pepstatin A with a concentration of 0.01 μM. The assay window is defined by the control (pH 5.5), defined as 0% effect, and the control pH 5.5+0.01 μM pepstatin A, defined as 100% effect. After incubation for 3 days, the cell culture supernatants are collected and stored at −20° C. or measured directly. The amount of liberated GAG is measured photometrically.
The effect (1 value) of the respective substance in % based on the positive control (pH 5.5+0.01 μM pepstatin A) and the negative control (pH 5.5) is reported for concentrations of 1 μM and 100 nM. The value represents the average of 4 replicants. In the determination of a concentration/effect relationship, an IC50 value is reported to the database (Assay Explorer).
The cell culture supernatants (200 μl) are either measured directly or stored at −20° C. […] A rapid colour reaction occurs, which is subsequently measured at 633 nm using a plate reader (for example Envision). […]

[2] = biological target: T1, recombinant human renin (Homo sapiens, UniProt P00797); test: In-vitro fluorescence assay for identification of renin-inhibitory activity; assay type: biochemical; conditions: recombinant human renin 10 nM, FRET substrate 5 μM, pH 7.2; read-out: Renin selectivity IC50
T1 construct: purchased Proteos, Kalamazoo, Mich
T1 sequence (P00797 67-406): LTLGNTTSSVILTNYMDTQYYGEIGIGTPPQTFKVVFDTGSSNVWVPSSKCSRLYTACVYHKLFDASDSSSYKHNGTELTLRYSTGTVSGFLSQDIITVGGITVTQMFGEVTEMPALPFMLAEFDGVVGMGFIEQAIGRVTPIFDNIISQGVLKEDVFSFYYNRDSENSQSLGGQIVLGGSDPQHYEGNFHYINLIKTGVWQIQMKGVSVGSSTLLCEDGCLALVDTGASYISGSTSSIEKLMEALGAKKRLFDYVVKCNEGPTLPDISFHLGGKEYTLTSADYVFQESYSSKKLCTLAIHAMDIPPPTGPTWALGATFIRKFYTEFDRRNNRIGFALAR
Protocol: EXAMPLE 8: IN-VITRO FLUORESCENCE ASSAY FOR IDENTIFICATION OF RENIN-INHIBITORY ACTIVITY
In order to identify modulators of renin activity, a continuous enzymatic test was carried out with a synthetic peptide which carries a fluorescent group Edans (=(5-(aminoethyl)aminonaphthalenesulfonate) which is quenched by energy transfer from a Dabcyl (4′-dimethylaminoazobenzene-4-carboxylate) group on the same molecule, in Greiner 384-well microtitre plates. Cleavage of the peptidic substrate by renin causes an increase in the fluorescence intensity. In order to determine the efficacy of substances, the time-dependent increase in the fluorescence intensity in the presence of the substance was compared with the time-dependent increase in fluorescence in the absence of substances. The reference substance used was renin inhibitor 2 (Z-Arg-Arg-Pro-Phe-His-Sta-Ile-His N-Boc-Lys methyl ester Z) (Sigma-Aldrich). The substrate used was renin FRET substrate I (DABCYL-g-Abu-Ile-His-Pro-Phe-His-Leu-Val-Ile-His-Thr-EDANS) (Anaspec, Fremont Calif.). The enzyme employed was recombinant human renin (Pro-teos, Kalamazoo, Mich.) in a final concentration of 10 nM. The test was carried out in 50 mM Mops buffer, 1.5% (v/v) of DMSO, 0.1% (w/v) of Igepal®, pH 7.2, 0.5% (w/v) of BSA. 2 μl of each substance solution with serially diluted substance concentration were added to in each case 4 μl of renin solution and incubated at room temperature for 15 min. The reaction was started by addition of 4 μl of substrate solution (final concentration 5 μM). After carrying out a starting-point fluorescence measurement (excitation wavelength 340 nm/emission wavelength 495 nm) using an Envision multilabel reader (Perkin Elmer), the reaction was incubated at 37° C. for 60 min. The amount of peptide fragment cleaved off during the reaction time was subsequently measured by determination of the increase in the fluorescence intensity at 495 nm (excitation wavelength 340 nm).
Result: all compounds measured have an IC50 of the renin selectivity of >30 μM (see Table 2 in Example 1).

SMILES | IC50 [1] [µM] | IC50 [2] [µM]
CC[C@H](C)[C@H](NC(=O)C[C@H](O)[C@H](Cc1ccccc1)NC(=O)[C@@H](NC(=O)CCc1ccccc1)C(C)C)C(=O)N[C@H](C(=O)O)C(C)C [Compound 4, (S)-2-((2S,3S)-2-{(3S,4S)-3-hydroxy-4-[(S)-3-methyl-2-(3-phenyl-propionylamino)butyrylamino]-5-phenylpentanoylamino}-3-methylpentanoylamino)-3-methylbutyric acid] | 0.0606 | 
CC[C@H](C)[C@H](NC(=O)C[C@H](O)[C@H](Cc1ccccc1)NC(=O)[C@@H](NC(=O)CCCc1ccccc1)C(C)C)C(=O)N[C@H](C(=O)O)C(C)C [Compound 5, (S)-2-((2S,3S)-2-{(3S,4S)-3-hydroxy-4-[(S)-3-methyl-2-(4-phenyl-butyrylamino)butyrylamino]-5-phenylpentanoylamino}-3-methylpentanoylamino)-3-methylbutyric acid] | 0.989 | 20
CC[C@H](C)[C@H](NC(=O)C[C@H](O)[C@H](Cc1ccccc1)NC(=O)[C@@H](NC(=O)Cc1cccc(OC)c1)C(C)C)C(=O)N[C@H](C(=O)O)C(C)C [Compound 20, (S)-2-[(2S,3S)-2-((3S,4S)-3-hydroxy-4-{(S)-2-[2-(3-methoxyphenyl)-acetylamino]-3-methylbutyrylamino}-5-phenylpentanoylamino)-3-methylpentanoylamino]-3-methylbutyric acid] | 0.0479 | 
